Measurements taken from patent publication US8247442B2, “Benzenesulfonamide compounds and their use” (Purdue Pharma L.P., priority 2006, dated 2012).
pIC50: −log10 of the molar value.

Experiments:
[1] = molecular target: T1, N-type calcium channel (NTCC) (Homo sapiens, UniProt Q00975); test: FLIPR calcium mobilization assay for N-type calcium channel; assay type: cell-based; settings: calcium mobilization in vitro assay; differentiated IMR32 cells, 90 mM KCl, 5 μM nitrendipine
T1 construct: endogenous in cells; host or cells: IMR32 cells (ATCC), differentiated with dibutyryl cAMP and bromodeoxyuridine
Description: Cell maintenance and differentiation. Unless noted otherwise, cell culture reagents were purchased from Mediatech of Hemdon, Md. IMR32 cells (American Type Culture Collection, ATCC, Manassas, Va.) were routinely cultured in growth medium consisting of minimum essential medium containing 10% fetal bovine serum (FBS, Hyclone, Logan, Utah), 100 U/mL penicillin, 100 μg/mL streptomycin, 2 mM L-glutamine, 1 mM sodium pyruvate, and 1×MEM non-essential amino acids. 80-90% confluent flasks of cells were differentiated using the following differentiation medium: Growth medium plus 1 mM dibutyryl cyclic AMP (Sigma, St. Louis, Mo.), and 2.5 μM bromodeoxyuridine (Sigma). Cells were differentiated for 8 days by replacing differentiation medium every 2-3 days.
FLIPR Calcium Mobilization Assay for N-type Calcium Channel. One day prior to performing this assay, differentiated IMR32 cells were treated with 1× CellStripper, and seeded on poly-D-lysine-coated 96-well clear-bottom black plates (Becton Dickinson, Franklin Lakes, N.J.) at 200,000 cells/well. On the day of the assay, the cell plates were washed with IMR32 buffer (127 mM NaCl, 1 mM KCl, 2 mM MgCl2, 700 μM NaH2PO4, 5 mM CaCl2, 5 mM NaHCO3, 8 mM HEPES, 10 mM glucose, pH 7.4), then pre-stimulated with KCl and loaded as follows: 0.05 mL of IMR32 buffer, 0.05 mL of each compound tested diluted in IMR32 buffer containing 20 μM nitrendipine (Sigma), and 0.1 mL KCl dissolved in IMR32 buffer, plus Fluo-4 were added (3 μM final concentration, Molecular Probes, Eugene, Oreg.). Final test compound concentrations ranged from about 846 μM to about 17 μM, final nitrendipine concentration was 5 μM, and final KCl concentration was 90 mM. After 1 hour, the cells were washed twice with 0.05 mL of each compound tested in nitrendipine-containing IMR32 buffer (no KCl or Fluo-4), and then replaced with 0.1 mL of each compound tested in nitrendipine-containing IMR32 buffer. Plates were then transferred to a Fluorimetric Imaging Plate Reader (FLIPR^96, Molecular Devices, Inc., Sunnyvale, Calif.) for assay. The FLIPR measured basal Fluo-4 fluorescence for 315 seconds (i.e., 5 minutes and 15 seconds), then added 0.1 mL KCl agonist dissolved in IMR32 buffer and measured fluorescence for another 45 seconds. Final test compound concentrations on the cells after FLIPR read ranged from about 846 μM to about 17 μM, final nitrendipine concentration was 5 μM, and final KCl concentration was 90 mM. Data were collected over the entire time course and analyzed using Excel, Graph Pad Prism (version 3.02, Graph Pad, San Diego, Calif.), or an in-house non-linear regression analysis software.

[2] = molecular target: T2, recombinant rat L-type calcium channel (LTCC) subunits (α1c, α2δ, and β1) (Rattus norvegicus, UniProt P22002); test: FLIPR calcium mobilization assay for L-type calcium channel; assay type: cell-based; settings: calcium mobilization in vitro assay; HEK293 cells stably expressing LTCC, 90 mM KCl
T2 construct: expressed in transfected cells; pcDNA6.2DEST α1c, pcDNA3.2DEST β1, pcDNA3.1-Zeo α2δ)
Description: Recombinant human embryonal kidney cells (HEK293, ATCC) stably transfected with either N-type calcium channel (NTCC) subunits (α1b, α2δ, and β3) or L-type calcium channel (LTCC) subunits (α1c, α2δ, and β1) were routinely cultured in growth medium consisting of Dulbecco's Modified Eagles Medium containing 10% FBS, 100 U/mL penicillin, 100 μg/mL streptomycin, 4 mM L-glutamine, 500 μg/mL geneticin (G418), 20 μg/mL Blasticidin S (InVivogen, San Diego, Calif.) and 500 μg/mL zeocin (InVivogen).
FLIPR Calcium Mobilization Assay for L-type Calcium Channel. One day prior to performing this assay, HEK293 cells stably expressing recombinant rat L-type calcium channel (LTCC) subunits (α1c, α2δ, and β1) were trypsinized, then seeded on poly-D-lysine-coated 96-well clear-bottom black plates (Becton Dickinson, Franklin Lakes, N.J.) at 75,000 cells/well. On the day of the assay, the plates were washed with LTCC wash buffer (127 mM NaCl, 2 mM MgCl2, 700 μM NaH2PO4, 5 mM CaCl2, 5 mM NaHCO3, 8 mM HEPES, 10 mM glucose, pH 7.4), then loaded with 0.1 mL of LTCC wash buffer containing Fluo-4 (3 μM final concentration, Molecular Probes, Eugene, Oreg.). After 1 hour, the cells were washed with 0.1 mL LTCC wash buffer and resuspended in 0.05 mL LTCC assay buffer (same composition as LTCC wash buffer). Plates were then transferred to a FLIPR^96 for assay. The FLIPR measured basal Fluo-4 fluorescence for 15 seconds, then added 0.05 mL of each compound tested diluted in LTCC assay buffer at final concentrations ranging from about 846 pM to about 17 μM. Fluo-4 fluorescence was then measured for 5 minutes. 0.1 mL KCl agonist dissolved in LTCC assay buffer was then added to the cells to produce a final concentration of 90 mM KCl, and fluorescence was measured for another 45 seconds. Data were collected over the entire time course and analyzed using Excel, Graph Pad Prism, or an in-house regression analysis software.
L-type Recombinant Cell Line Development. L-type calcium channel expressing HEK-293 cells were created in two stages. Stage 1 was created as follows. The rat α1c, and β1 cDNA expression constructs (2.5 μg each) were co-transfected into human embryonic kidney (HEK-293) cells by Lipofectamine Plus reagent (Invitrogen), as per manufacturer's instructions. 24 hours later, cells were split in limiting dilution into multiple 96-well plates in selection media containing 20 μg/mL blasticidin and 500 μg/mL geneticin, and incubated for 3 weeks at 37° C., 5% CO2, 95% humidity. Plates containing ≦1 clone per well were cultured until wells positive for single clones were confluent. Individual clones were then arrayed into columns of a destination 96-well plate, and partly split into 6-well plates for culture maintenance. Array plates were washed once with LTCC wash (or assay) buffer and cells loaded for 1 hour with 0.1 mL of LTCC buffer containing Fluo-4 (3 μM final concentration, Molecular Probes). Then they were washed twice with 0.1 mL of LTCC buffer, and replaced with 0.1 mL LTCC buffer. Plates were then transferred to a FLIPR^96 for assay. The FLIPR measured basal Fluo-4 fluorescence for 315 seconds, then added 0.1 mL KCl agonist dissolved in LTCC buffer and measured fluorescence for another 45 seconds. Final KCl concentration was 90 mM. Data were collected over the entire time course and analyzed using Excel, Graph Pad Prism, or Activity Base software. The clone with the greatest signal-to-noise ratio, best stability of response with passage number, and best adhesion to PDL precoated plates (Becton Dickinson) was expanded, characterized and used for stage 2 cell line development.
Stage 2 of L-type cell line development was carried out as follows. The rat α2δ cDNA expression construct (5 μg each) was transfected into the stage 1 L-type clonal cell line by Lipofectamine Plus reagent (Invitrogen), as per manufacturer's instructions. […]

T2 sequence (P22002 whole entry): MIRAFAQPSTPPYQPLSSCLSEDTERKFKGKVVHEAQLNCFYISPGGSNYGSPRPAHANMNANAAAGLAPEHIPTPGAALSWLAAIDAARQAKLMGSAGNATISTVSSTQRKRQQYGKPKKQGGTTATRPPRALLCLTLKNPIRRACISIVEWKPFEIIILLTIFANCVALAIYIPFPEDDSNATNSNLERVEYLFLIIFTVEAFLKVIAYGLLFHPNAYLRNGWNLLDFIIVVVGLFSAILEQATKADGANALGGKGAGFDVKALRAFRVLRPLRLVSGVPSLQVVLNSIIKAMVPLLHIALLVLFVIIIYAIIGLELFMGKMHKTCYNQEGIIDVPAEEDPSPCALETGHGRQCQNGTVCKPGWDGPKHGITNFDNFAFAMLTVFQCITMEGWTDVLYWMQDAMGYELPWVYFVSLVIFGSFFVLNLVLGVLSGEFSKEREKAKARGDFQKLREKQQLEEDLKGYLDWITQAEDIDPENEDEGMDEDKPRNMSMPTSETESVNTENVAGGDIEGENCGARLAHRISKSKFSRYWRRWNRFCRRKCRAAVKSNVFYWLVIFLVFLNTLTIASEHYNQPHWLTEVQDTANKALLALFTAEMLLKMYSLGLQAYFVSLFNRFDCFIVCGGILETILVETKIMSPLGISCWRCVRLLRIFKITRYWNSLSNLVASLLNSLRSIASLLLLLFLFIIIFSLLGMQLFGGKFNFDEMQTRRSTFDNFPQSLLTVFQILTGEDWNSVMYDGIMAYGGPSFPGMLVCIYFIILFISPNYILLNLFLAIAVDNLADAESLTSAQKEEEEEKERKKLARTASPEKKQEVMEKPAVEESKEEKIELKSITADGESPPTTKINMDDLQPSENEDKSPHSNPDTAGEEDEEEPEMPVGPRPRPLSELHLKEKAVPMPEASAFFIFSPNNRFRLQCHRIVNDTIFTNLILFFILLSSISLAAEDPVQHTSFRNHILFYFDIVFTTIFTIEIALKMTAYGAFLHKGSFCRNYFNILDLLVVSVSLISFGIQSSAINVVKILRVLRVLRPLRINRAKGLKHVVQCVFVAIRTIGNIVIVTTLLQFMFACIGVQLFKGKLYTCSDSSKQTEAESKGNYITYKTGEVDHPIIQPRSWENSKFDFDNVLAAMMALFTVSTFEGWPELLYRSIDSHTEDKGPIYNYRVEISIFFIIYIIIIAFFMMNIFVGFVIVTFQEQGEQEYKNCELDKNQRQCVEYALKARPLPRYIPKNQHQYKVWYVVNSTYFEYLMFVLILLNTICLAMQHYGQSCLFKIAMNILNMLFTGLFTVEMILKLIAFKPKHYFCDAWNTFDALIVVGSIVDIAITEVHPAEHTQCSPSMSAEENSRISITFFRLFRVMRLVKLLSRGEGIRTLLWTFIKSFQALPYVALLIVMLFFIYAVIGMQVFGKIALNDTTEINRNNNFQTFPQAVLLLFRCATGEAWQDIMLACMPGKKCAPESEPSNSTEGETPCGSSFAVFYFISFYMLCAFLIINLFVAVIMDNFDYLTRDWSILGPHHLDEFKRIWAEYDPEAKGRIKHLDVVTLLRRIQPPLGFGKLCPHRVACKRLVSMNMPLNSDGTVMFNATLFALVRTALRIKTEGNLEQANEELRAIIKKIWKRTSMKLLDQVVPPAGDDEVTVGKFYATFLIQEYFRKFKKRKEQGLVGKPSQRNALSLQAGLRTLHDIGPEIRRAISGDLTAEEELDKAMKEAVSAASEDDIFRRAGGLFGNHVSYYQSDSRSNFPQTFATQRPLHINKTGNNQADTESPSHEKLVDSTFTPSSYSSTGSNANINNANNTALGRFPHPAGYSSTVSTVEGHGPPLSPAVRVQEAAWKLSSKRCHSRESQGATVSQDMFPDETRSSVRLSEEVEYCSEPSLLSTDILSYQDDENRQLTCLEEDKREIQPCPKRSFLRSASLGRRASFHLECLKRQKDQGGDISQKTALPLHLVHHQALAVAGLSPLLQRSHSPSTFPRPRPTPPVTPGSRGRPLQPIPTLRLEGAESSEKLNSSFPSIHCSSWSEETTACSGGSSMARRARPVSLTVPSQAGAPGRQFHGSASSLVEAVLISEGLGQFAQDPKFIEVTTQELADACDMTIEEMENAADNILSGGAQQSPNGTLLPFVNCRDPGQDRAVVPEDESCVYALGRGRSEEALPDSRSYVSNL
T2 sequence (P54290 25-944 partner): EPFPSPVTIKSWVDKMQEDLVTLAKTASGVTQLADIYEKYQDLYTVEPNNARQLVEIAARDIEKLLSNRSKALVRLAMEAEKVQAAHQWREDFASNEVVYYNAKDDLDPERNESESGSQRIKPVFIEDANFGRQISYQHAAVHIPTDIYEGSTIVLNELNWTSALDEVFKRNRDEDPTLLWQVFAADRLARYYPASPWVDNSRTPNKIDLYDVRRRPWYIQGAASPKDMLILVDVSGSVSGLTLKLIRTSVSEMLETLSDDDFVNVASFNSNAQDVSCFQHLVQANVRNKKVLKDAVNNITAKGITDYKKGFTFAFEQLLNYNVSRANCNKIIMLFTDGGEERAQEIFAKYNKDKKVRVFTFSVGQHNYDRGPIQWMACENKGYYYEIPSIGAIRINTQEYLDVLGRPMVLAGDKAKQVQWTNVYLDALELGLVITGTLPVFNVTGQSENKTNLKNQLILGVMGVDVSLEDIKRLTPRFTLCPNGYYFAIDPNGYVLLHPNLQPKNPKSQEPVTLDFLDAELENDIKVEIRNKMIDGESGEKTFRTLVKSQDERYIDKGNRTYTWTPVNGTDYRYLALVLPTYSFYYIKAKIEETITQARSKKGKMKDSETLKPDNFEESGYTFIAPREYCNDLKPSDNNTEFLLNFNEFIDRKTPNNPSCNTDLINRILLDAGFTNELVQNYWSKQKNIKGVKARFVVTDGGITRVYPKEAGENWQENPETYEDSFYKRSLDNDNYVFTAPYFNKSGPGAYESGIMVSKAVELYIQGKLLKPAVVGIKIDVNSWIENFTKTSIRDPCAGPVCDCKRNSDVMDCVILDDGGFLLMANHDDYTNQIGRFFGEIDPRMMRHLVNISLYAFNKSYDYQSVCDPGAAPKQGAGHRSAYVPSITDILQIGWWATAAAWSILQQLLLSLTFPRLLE
T2 sequence (P54290 945-1091 partner): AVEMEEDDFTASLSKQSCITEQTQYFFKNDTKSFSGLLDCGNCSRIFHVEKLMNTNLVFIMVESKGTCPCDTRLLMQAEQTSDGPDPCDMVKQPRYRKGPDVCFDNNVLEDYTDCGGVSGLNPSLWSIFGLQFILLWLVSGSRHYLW
T2 sequence (P54283 whole entry partner): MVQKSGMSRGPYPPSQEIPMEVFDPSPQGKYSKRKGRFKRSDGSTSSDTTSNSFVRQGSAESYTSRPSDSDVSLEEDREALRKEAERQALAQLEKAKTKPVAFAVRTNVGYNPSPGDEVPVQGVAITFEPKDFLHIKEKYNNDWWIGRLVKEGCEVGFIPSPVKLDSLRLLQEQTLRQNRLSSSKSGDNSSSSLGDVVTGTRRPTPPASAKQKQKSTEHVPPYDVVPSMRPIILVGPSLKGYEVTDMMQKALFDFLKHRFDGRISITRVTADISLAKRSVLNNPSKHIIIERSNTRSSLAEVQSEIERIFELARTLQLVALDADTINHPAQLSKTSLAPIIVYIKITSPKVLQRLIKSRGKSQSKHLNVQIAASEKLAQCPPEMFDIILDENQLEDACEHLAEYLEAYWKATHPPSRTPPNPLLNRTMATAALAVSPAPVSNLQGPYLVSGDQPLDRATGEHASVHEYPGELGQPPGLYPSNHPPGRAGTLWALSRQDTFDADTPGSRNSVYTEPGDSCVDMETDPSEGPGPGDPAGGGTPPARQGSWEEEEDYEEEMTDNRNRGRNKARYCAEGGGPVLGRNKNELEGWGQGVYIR

For O=C(CN1CCC(NS(=O)(=O)c2cccc(C(F)(F)F)c2)C1)Nc1ccc(F)cc1 (stereo not drawn) [N-(4-Fluorophenyl)-2-[3-(3-trifluoromethylbenzenesulfonylamino)-pyrrolidin-1-yl]acetamide], the pIC50 [1] was 5.77.
Compound CC(C)C[C@H](NC(C)C)C(=O)N1CCCC(N(C2CC2)S(=O)(=O)c2cccc(C(F)(F)F)c2)C1 (stereo partly drawn) [(2S)N-Cyclopropyl-N-[1-(2-isopropylamino-4-methylpentanoyl)piperidin-3-yl]-3-trifluoromethylbenzenesulfonamide] has a pIC50 [1] of 6.68.
In the case of O=C(CNCc1cccnc1)N1CCCC(N(C2CC2)S(=O)(=O)c2cccc(C(F)(F)F)c2)C1 (stereo not drawn) [N-Cyclopropyl-N-(1-{2-[(pyridin-3-ylmethyl)amino]acetyl}-piperidin-3-yl)-3-trifluoromethylbenzenesulfonamide], the pIC50 [2] was < 4.70 and the pIC50 [1] was 5.92.
Work on COc1ccc(CNCC(=O)N2CCCC(N(C3CC3)S(=O)(=O)c3cccc(C(F)(F)F)c3)C2)cc1 (stereo not drawn) [N-Cyclopropyl-N-{1-[2-(4-methoxybenzylamino)acetyl]-piperidin-3-yl}-3-trifluoromethylbenzenesulfonamide] yielded a pIC50 [2] of 5.33 and a pIC50 [1] of 6.38.
For COCCNCCC(=O)N1CCCC(N(C2CC2)S(=O)(=O)c2cccc(C(F)(F)F)c2)C1 (stereo not drawn) [N-Cyclopropyl-N-{1-[3-(2-methoxyethylamino)propionyl]piperidin-3-yl}-3-trifluoromethylbenzenesulfonamide], the pIC50 [2] was 4.70 to 5.00 and the pIC50 [1] was 6.09.
In the case of CC(C)NCCC(=O)N1CCCC(N(C2CC2)S(=O)(=O)c2cccc(C(F)(F)F)c2)C1 (stereo not drawn) [N-Cyclopropyl-N-[1-(3-isopropylaminopropionyl)piperidin-3-yl]-3-trifluoromethylbenzenesulfonamide], the pIC50 [2] was 5.06 and the pIC50 [1] was 6.20.
For CC(C)CNCC(=O)N1CCCC(N(C2CC2)S(=O)(=O)c2cccc(C(F)(F)F)c2)C1 (stereo not drawn) [N-Cyclopropyl-N-[1-(2-isobutylaminoacetyl)piperidin-3-yl]-3-trifluoromethylbenzenesulfonamide], the pIC50 [2] was 5.24 and the pIC50 [1] was 6.16.
With CC(C)CNC(=O)CN1CCCC(N(C2CC2)S(=O)(=O)c2cccc(C(F)(F)F)c2)C1 (stereo not drawn) [2-{3-[Cyclopropyl-(3-trifluoromethylbenzenesulfonyl)-amino]-piperidin-1-yl}-N-isobutyl-acetamide] the pIC50 [2] was 5.01 and the pIC50 [1] was 6.37.
Work on CC(C)C[C@H](N)CC(=O)N1CCCC(N(C2CC2)S(=O)(=O)c2cccc(C(F)(F)F)c2)C1 (stereo partly drawn) [(2S)N-[1-(3-Amino-5-methylhexanoyl)piperidin-3-yl]-N-cyclopropyl-3-trifluoromethylbenzenesulfonamide] yielded a pIC50 [2] of 6.30 and a pIC50 [1] of 6.55.
CC(C)CCN[C@@H](CC(C)C)C(=O)N1CCCC(N(C2CC2)S(=O)(=O)c2cccc(C(F)(F)F)c2)C1 (stereo partly drawn) [(2S)N-Cyclopropyl-N-{1-[2-(3-methylbutyl)amino-4-methylpentanoyl]piperidin-3-yl}-3-trifluoromethylbenzenesulfonamide] was tested, and the pIC50 [1] was 6.44.
O=C(CN1CCCC(N(C2CC2)S(=O)(=O)c2cccc(C(F)(F)F)c2)C1)Nc1ccc(F)cc1 (stereo not drawn) [2-{3-[Cyclopropyl-(3-trifluoromethylbenzenesulfonyl)amino]-piperidin-1-yl}-N-(4-fluorophenyl)-acetamide] was tested, and the pIC50 [2] was 5.21 and the pIC50 [1] was 6.44.
With CC(C)C[C@H](N)C(=O)N1CCCC(N(C2CC2)S(=O)(=O)c2cccc(C(F)(F)F)c2)C1 (stereo partly drawn) [(2S)N-[1-(2-Amino-4-methylpentanoyl)piperidin-3-yl]-N-cyclopropyl-3-trifluoromethylbenzenesulfonamide] the pIC50 [2] was 5.18 and the pIC50 [1] was 5.96.
With CC(C)CNCCC(=O)N1CCCC(N(C2CC2)S(=O)(=O)c2cccc(C(F)(F)F)c2)C1 (stereo not drawn) [N-Cyclopropyl-N-[1-(3-isobutylaminopropionyl)piperidin-3-yl]-3-trifluoromethylbenzenesulfonamide] the pIC50 [2] was 5.25 and the pIC50 [1] was 6.09.
For CCN[C@@H](CC(C)C)C(=O)N1CCCC(N(C2CC2)S(=O)(=O)c2cccc(C(F)(F)F)c2)C1 (stereo partly drawn) [(2S)N-Cyclopropyl-N-[1-(2-ethylamino-4-methylpentanoyl)piperidin-3-yl]-3-trifluoromethylbenzenesulfonamide], the pIC50 [2] was 5.29 and the pIC50 [1] was 6.89.
For O=S(=O)(c1cccc(C(F)(F)F)c1)N(C1CC1)C1CCCN(CCCN(c2ccc(F)cc2)c2ccc(F)cc2)C1 (stereo not drawn) [N-Cyclopropyl-N-(1-{3-[bis-(4-fluorophenyl)amino]propyl}piperidin-3-yl)-3-trifluoromethylbenzenesulfonamide], the pIC50 [1] was 5.65.
Work on CN[C@@H](CC(C)C)C(=O)N1CCCC(N(C2CC2)S(=O)(=O)c2cccc(C(F)(F)F)c2)C1 (stereo partly drawn) [(2S)N-Cyclopropyl-N-[1-(4-methyl-2-methylaminopentanoyl)-piperidin-3-yl]-3-trifluoromethylbenzenesulfonamide] yielded a pIC50 [2] of 5.18 and a pIC50 [1] of 6.27.
O=C(CCNCCO)N1CCCC(N(C2CC2)S(=O)(=O)c2cccc(C(F)(F)F)c2)C1 (stereo not drawn) [N-Cyclopropyl-N-{1-[3-(2-hydroxyethylamino)propionyl]piperidin-3-yl}-3-trifluoromethylbenzenesulfonamide] showed a pIC50 [1] of 5.55.
For “(2S)N-Cyclopropyl-N-[1-(2-methylcarbonylpropylamino-4-methylpentanoyl)piperidin-3-yl]-3-trifluoromethylbenzenesulfonamide”, the pIC50 [1] was 6.29.
